Experimental data published in paper PMC3260189, “The Location and Nature of General Anesthetic Binding Sites on the Active Conformation of Firefly Luciferase; A Time Resolved Photolabeling Study” (PLoS ONE, 2012).
Values belong to the compound of their own block, whether it stands above or below them.

What was measured:
[1] = target: T1, American firefly luciferase (Photinus pyralis, UniProt P08659); experiment: equilibrium photolabeling with LC-MSMS; format: binding
T1 construct: recombinant luciferase

[2] = target: T1, American firefly luciferase; experiment: stopped-flow inhibition of initial light output; format: biochemical
[3] = target: T2, Japanese firefly luciferase (Nipponoluciola cruciata, UniProt P13129); experiment: [3H] photoincorporation and time-resolved photolabeling with LC-MSMS; format: binding
T2 construct: recombinant luciferase
T2 sequence (P13129 1-548): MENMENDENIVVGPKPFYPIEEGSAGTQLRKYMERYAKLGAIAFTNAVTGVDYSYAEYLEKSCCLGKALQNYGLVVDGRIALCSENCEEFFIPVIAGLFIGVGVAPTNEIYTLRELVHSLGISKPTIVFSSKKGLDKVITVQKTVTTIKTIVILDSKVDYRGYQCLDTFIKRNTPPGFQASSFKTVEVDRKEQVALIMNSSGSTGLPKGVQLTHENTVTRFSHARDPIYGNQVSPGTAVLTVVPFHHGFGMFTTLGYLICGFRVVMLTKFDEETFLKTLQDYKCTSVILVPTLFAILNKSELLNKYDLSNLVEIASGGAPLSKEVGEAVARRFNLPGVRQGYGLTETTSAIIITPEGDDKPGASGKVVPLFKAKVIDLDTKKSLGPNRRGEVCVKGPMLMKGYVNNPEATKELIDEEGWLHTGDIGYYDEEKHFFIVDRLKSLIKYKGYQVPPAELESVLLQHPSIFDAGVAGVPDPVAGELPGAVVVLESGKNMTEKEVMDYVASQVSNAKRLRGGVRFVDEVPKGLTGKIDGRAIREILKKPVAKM

[4] = target: T1, American firefly luciferase; experiment: stopped-flow inhibition of initial ATP-induced light output; photolabeling with LC-MSMS also done; format: biochemical

T1 sequence (P08659 whole entry): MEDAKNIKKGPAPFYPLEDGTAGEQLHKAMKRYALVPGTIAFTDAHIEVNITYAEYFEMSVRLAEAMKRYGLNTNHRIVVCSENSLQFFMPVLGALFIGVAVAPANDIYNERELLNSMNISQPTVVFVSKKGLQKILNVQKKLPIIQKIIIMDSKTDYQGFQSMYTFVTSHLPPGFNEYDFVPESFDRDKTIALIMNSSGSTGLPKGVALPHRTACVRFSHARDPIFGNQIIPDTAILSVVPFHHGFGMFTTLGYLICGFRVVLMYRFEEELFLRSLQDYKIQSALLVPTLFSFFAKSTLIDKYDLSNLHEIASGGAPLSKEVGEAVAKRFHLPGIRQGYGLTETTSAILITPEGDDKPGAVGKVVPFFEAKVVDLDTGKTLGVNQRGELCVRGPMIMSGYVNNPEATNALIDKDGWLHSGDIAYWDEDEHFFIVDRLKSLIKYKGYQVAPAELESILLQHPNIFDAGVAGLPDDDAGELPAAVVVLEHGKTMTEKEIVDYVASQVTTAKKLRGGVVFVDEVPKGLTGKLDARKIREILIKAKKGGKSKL

SMILES: CC1(CCCCCCO)N=N1 [7-azioctanol]
equilibrium photolabeling with LC-MSMS [1]: photolabeled the American firefly luciferase at equilibrium with the azialkanols, and found the labeling pattern to be identical

IC50 [2]: ~ 225 µM
SMILES: CCCCCCCCO [1-octanol]

Kd [3]: > 1000 µM
IC50 [4]: 200 ± 46 µM
SMILES: CCCCCC1(CCO)N=N1 [3-azioctanol, 3-(2-hydroxyethyl)-3-n-pentyldiazirine]
